Active and inactive are the calls of the source. No cut-off for these calls is given here.

The values that follow come from ChEMBL document CHEMBL1156687, “Design and microwave-assisted synthesis of 5-trifluoromethyl-4,5-dihydro-1H-pyrazoles: novel agents with analgesic and anti-inflammatory properties” (Eur J Med Chem, 2008).

The test system of data set [1] is Mus musculus. The data set is described as follows: Analgesic activity against formalin-induced neurogenic pain in albino mouse assessed as time spent on paw licking at 1500 umol/kg, sc administered 20 mins before formalin challenge assessed for 30 mins at 5 mins intervals. In kind it is functional, organism-based.
The subject of data set [2] is Mus musculus. In words: Increase in locomotor activity in albino mouse assessed as number of crossing at 1000 umol/kg. In kind it is functional.
Data set [3] deals with Mus musculus. In words: Analgesic activity in albino mouse assessed as response latency at 1500 ug/ml, sc after 30 mins by hot plate method. It is filed as functional, organism-based. A general note: Thermal pain tests record how soon the animal reacts.
The test system of data set [4] is Mus musculus. The data set is described as follows: Analgesic activity against formalin-induced inflammatory pain in albino mouse assessed as time spent on paw licking at 1000 umol/kg, sc administered 20 mins before formalin challenge assessed for 30 mins at 5 mins intervals. It is filed as functional.
Data set [5] has as its system Mus musculus. In words: Analgesic activity against formalin-induced neurogenic pain in albino mouse assessed as time spent on paw licking at 1000 umol/kg, sc administered 20 mins before formalin challenge assessed for 30 mins at 5 mins intervals. It is filed as functional.
Data set [6] has as its system Mus musculus. The data set is described as follows: Analgesic activity against formalin-induced inflammatory pain in albino mouse assessed as time spent on paw licking at 250 umol/kg, sc administered 20 mins before formalin challenge assessed for 30 mins at 5 mins intervals. It is filed as functional, organism-based.
In data set [7] the test system is Mus musculus. The data set is described as follows: Analgesic activity against formalin-induced inflammatory pain in albino mouse assessed as time spent on paw licking at 750 umol/kg, sc administered 20 mins before formalin challenge assessed for 30 mins at 5 mins intervals. It is filed as functional.
For data set [8], the system named is Mus musculus. The data set is described as follows: Analgesic activity against formalin-induced neurogenic pain in albino mouse assessed as time spent on paw licking at 750 umol/kg, sc administered 20 mins before formalin challenge assessed for 30 mins at 5 mins intervals. In kind it is functional.
Data set [9] relates to Mus musculus. In words: Analgesic activity against formalin-induced inflammatory pain in albino mouse assessed as time spent on paw licking at 75 umol/kg, sc administered 20 mins before formalin challenge assessed for 30 mins at 5 mins intervals. It is filed as functional, organism-based.
In data set [10] the test system is Mus musculus. The data set is described as follows: Analgesic activity in albino mouse assessed as number of falls from the rod at 1000 ug/ml, sc after 4 mins by rotarod test. In kind it is functional. A general note: The rotarod test checks motor coordination on a turning rod.
Data set [11] relates to Mus musculus. In words: Analgesic activity in albino mouse assessed as response latency at 1000 ug/ml, sc after 30 mins by hot plate method. It is filed as functional, organism-based.
Data set [12] concerns Mus musculus. The data set is described as follows: Analgesic activity in albino mouse assessed as inhibition of carrageenan-induced paw edema at 1000 ug/ml. On the set-up: scale not given: the % may be the effect or the level left. In kind it is functional.
Data set [13] relates to Mus musculus. The data set is described as follows: Analgesic activity in albino mouse assessed as falling latency at 1000 ug/ml, sc after 30 mins by rotarod test. It is filed as functional.
In data set [14] the test system is Mus musculus. In words: Analgesic activity against formalin-induced inflammatory pain in albino mouse assessed as time spent on paw licking at 1500 umol/kg, sc administered 20 mins before formalin challenge assessed for 30 mins at 5 mins intervals. It is filed as functional, organism-based.
The test system of data set [15] is Mus musculus. The data set is described as follows: Increase in locomotor activity in albino mouse assessed as number of crossing at 1500 umol/kg. In kind it is functional.
The species entered for data set [16] is Mus musculus. The data set is described as follows: Toxicity against in albino mouse after 72 hrs. The settings on record: in vivo. It is filed as organism-based.
The subject of data set [17] is Mus musculus. In words: Analgesic activity against formalin-induced inflammatory pain in albino mouse assessed as time spent on paw licking at 25 umol/kg, sc administered 20 mins before formalin challenge assessed for 30 mins at 5 mins intervals. It is filed as functional, organism-based.

On to `Cc1c(N(C)CS(=O)(=O)[O-])c(=O)n(-c2ccccc2)n1C.[Na+]` [DIPYRONE SODIUM], for which the outcome with Mus musculus [1] and in the data set on Mus musculus [3] was Active. In the data set with Mus musculus [2], the Activity was determined as 87.7.

On to `NC(=O)N1N=C(c2ccccc2)CC1(O)C(F)(F)F` (centres undefined), for which the figures for the Activity in the data set with Mus musculus [4] and with Mus musculus [5] were 8.2% and 10%, respectively.

Take `CCCC1=NN(C(N)=O)C(O)(C(F)(F)F)C1` (centres undefined): in the data set on Mus musculus [6], the result was inactive. Moreover, the Activity is on record as 70.1% in the data set with Mus musculus [7] and 48.2% with Mus musculus [8]. Besides, the result in the data set with Mus musculus [9] was Active.

For `CC1=NN(C(N)=O)C(O)(C(F)(F)F)C1` (centres undefined), the Activity amounted to 55.5% in the data set with Mus musculus [4] and 23.3% with Mus musculus [5].

As for `CCC1=NN(C(N)=O)C(O)(C(F)(F)F)C1` (centres undefined), the Activity in the data set with Mus musculus [10] is reported as 3.7; with Mus musculus [12], 43.7%; in the data set with Mus musculus [4], 98.2%; with Mus musculus [2], 165.6; in the data set on Mus musculus [5], 87.9%; with Mus musculus [13], 112.5 s. In addition, in the data set with Mus musculus [11], the result was inactive. The outcome in the data set with Mus musculus [1] and in the data set with Mus musculus [14] was Active.

Turning to `CCCCC1=NN(C(N)=O)C(O)(C(F)(F)F)C1` (centres undefined), the Activity is -22.3% in the data set on Mus musculus [7] and 46% in the data set on Mus musculus [8].

Consider `NC(=O)c1ccccc1O` [SALICYLAMIDE], for which, in the data set with Mus musculus [15], the Activity is 102.1. For the same compound, in the data set on Mus musculus [1], the outcome was inactive.

Regarding `CC(C)(C)C1=NN(C(N)=O)C(O)(C(F)(F)F)C1` (centres undefined), the Activity with Mus musculus [4] was 72.9%; with Mus musculus [5], 59.1%.

For the compound `CC1C=NN(C(N)=O)C1(O)C(F)(F)F` (centres undefined), the Activity in the data set with Mus musculus [10] was 5.1; in the data set filed under Mus musculus [16], “Non-toxic”; in the data set with Mus musculus [12], 34.6%; with Mus musculus [4], 97.2%; in the data set with Mus musculus [2], 167.3; in the data set with Mus musculus [5] it was 74.6%. Moreover, the Activity with Mus musculus [13] was 62.6 s. Also, the outcome in the data set on Mus musculus [11] was inactive. The result in the data set on Mus musculus [1] and with Mus musculus [14] was Active.

For the compound `NC(=O)N1N=C(c2ccc(Br)cc2)CC1(O)C(F)(F)F` (centres undefined), the Activity with Mus musculus [4] is 47.3%; in the data set on Mus musculus [5], 33.3%.

On to `NC(=O)N1N=CCC1(O)C(F)(F)F` (centres undefined), for which the Activity with Mus musculus [4] turned out to be 70.8%; in the data set with Mus musculus [5], 32.8%.

With `CC(C)C1=NN(C(N)=O)C(O)(C(F)(F)F)C1` (centres undefined), the Activity entry in the data set listed under Mus musculus [16] is “Non-toxic”; in the data set with Mus musculus [7] it was 67%; with Mus musculus [8] it was 51.9%. Also, in the data set with Mus musculus [17], the outcome was Active.
